According to patent publication US6914045B2, “Glycopeptide antibiotics” (Wyeth Holdings Corporation, priority 2001, dated 2005):
Converted amounts (≈) assume the structure as drawn. Numbered stars: 1 amine (or outer) side, 2 acyl side, 3 side chain; on linkers, the order of the positions; unused ones are H or OH. Square brackets hold non-standard residues; d marks the D form. Peptide text beside a SMILES is read from it. ξ: configuration not given here. X1 = N=C1NCC(C(O)C(N[*:1])C(=O)[*:2])N1C1OC(CO)C(O)C(O)C1O; ξEnduracididine(βξ-OH,4'ξ) = N=C1NCC(C(O)C(N)C(=O)O)N1; Tyr(3,5-Br2) = N[CH](Cc1cc(Br)c(O)c(Br)c1)C(=O)O; ξPhe(βξ-Me) = CC(c1ccccc1)C(N)C(=O)O

Experiments:
Test in all cases: in vitro antibacterial evaluation, MIC by broth dilution
Assay type in all cases: cell-based
Enterococcus sp. = details: broth dilution, 18 hours at 35° C.; for MIC Enterococcus faecalis (ATCC 29212): strain ATCC 29212; for MIC Enterococcus faecalis (GC 2242): strain GC 2242; for MIC Enterococcus faecium (GC 2243): strain GC 2243; for MIC Enterococcus faecalis (GC 2691): strain GC 2691; for MIC Enterococcus faecalis (GC 3059): strain GC 3059; for MIC Enterococcus faecalis (GC 4552): strain GC 4552; for MIC Enterococcus faecalis (GC 4553): strain GC 4553; for MIC Enterococcus faecalis (GC 4554): strain GC 4554; for MIC Enterococcus faecium (GC 4556): strain GC 4556; for MIC Enterococcus faecium (GC 4557): strain GC 4557; for MIC Enterococcus avium (GC 4558): strain GC 4558; for MIC Enterococcus faecalis (GC 6189): strain GC 6189
In short: (§1)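 Broth dilution per NCCLS M7-A2 in Mueller-Hinton II medium, inoculum 5×10^5 CFU/mL, antibiotic range 64-0.06 μg/mL. MIC taken as lowest concentration inhibiting growth; Gram-positive panel includes recent clinical isolates resistant to methicillin, penicillin and/or vancomycin.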

Staphylococcus sp. = details: broth dilution, 18 hours at 35° C.; for MIC Staphylococcus aureus (ATCC 29213): strain ATCC 29213; for MIC Staphylococcus aureus (GC 1131): strain GC 1131; for MIC Staphylococcus aureus (GC 3051): strain GC 3051; for MIC Staphylococcus aureus (GC 3053): strain GC 3053; for MIC Staphylococcus aureus (GC 4541): strain GC 4541; for MIC Staphylococcus aureus (GC 4542): strain GC 4542; for MIC Staphylococcus aureus-SMITH (GC 4543): strain GC 4543; for MIC Staphylococcus aureus (GC 4544): strain GC 4544; for MIC Staphylococcus aureus (GC 4545): strain GC 4545; for MIC Staphylococcus haemolyticus (GC 4546): strain GC 4546; for MIC Coagulase Negative Staphylococcus (GC 4547): strain GC 4547; for MIC Coagulase Negative Staphylococcus (GC 4548): strain GC 4548; for MIC Coagulase Negative Staphylococcus (GC 4549): strain GC 4549; for MIC Coagulase Negative Staphylococcus (GC 4551): strain GC 4551
In short: as §1

Streptococcus sp. = details: broth dilution, 18 hours at 35° C.; for MIC Streptococcus pneumoniae (ATCC 6301): strain ATCC 6301; for MIC Streptococcus pneumoniae (GC 1894): strain GC 1894; for MIC Streptococcus pyogenes (GC 4563): strain GC 4563; for MIC Streptococcus agalactiae (GC 4564): strain GC 4564; for MIC Streptococcus pneumoniae (GC 4565): strain GC 4565
In short: as §1

Escherichia coli = details: broth dilution, 18 hours at 35° C.; for MIC Escherichia coli (ATCC 25922): strain ATCC 25922; for MIC Escherichia coli (GC 4559): strain GC 4559; for MIC Escherichia coli (GC 4560): strain GC 4560
In short: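 Broth dilution MIC per NCCLS M7-A2 in Mueller-Hinton II medium, inoculum 5×10^5 CFU/mL, antibiotic range 64-0.06 μg/mL. MIC taken as lowest concentration inhibiting growth.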

| Structure (SMILES) | MIC Enterococcus faecalis (ATCC 29212) (Enterococcus sp.) [µg/mL] | MIC Enterococcus faecalis (GC 2242) (Enterococcus sp.) [µg/mL] | MIC Enterococcus faecium (GC 2243) (Enterococcus sp.) [µg/mL] | MIC Enterococcus faecalis (GC 4552) (Enterococcus sp.) [µg/mL] | MIC Enterococcus faecalis (GC 4553) (Enterococcus sp.) [µg/mL] | MIC Enterococcus faecalis (GC 4554) (Enterococcus sp.) [µg/mL] | MIC Enterococcus faecium (GC 4556) (Enterococcus sp.) [µg/mL] | MIC Enterococcus faecium (GC 4557) (Enterococcus sp.) [µg/mL] | MIC Enterococcus avium (GC 4558) (Enterococcus sp.) [µg/mL] | MIC Staphylococcus aureus (ATCC 29213) (Staphylococcus sp.) [µg/mL] | MIC Staphylococcus aureus (GC 1131) (Staphylococcus sp.) [µg/mL] | MIC Staphylococcus aureus (GC 4541) (Staphylococcus sp.) [µg/mL] | MIC Staphylococcus aureus (GC 4542) (Staphylococcus sp.) [µg/mL] | MIC Staphylococcus aureus-SMITH (GC 4543) (Staphylococcus sp.) [µg/mL] | MIC Staphylococcus aureus (GC 4544) (Staphylococcus sp.) [µg/mL] | MIC Staphylococcus aureus (GC 4545) (Staphylococcus sp.) [µg/mL] | MIC Staphylococcus haemolyticus (GC 4546) (Staphylococcus sp.) [µg/mL] | MIC Coagulase Negative Staphylococcus (GC 4547) (Staphylococcus sp.) [µg/mL] | MIC Coagulase Negative Staphylococcus (GC 4548) (Staphylococcus sp.) [µg/mL] | MIC Coagulase Negative Staphylococcus (GC 4549) (Staphylococcus sp.) [µg/mL] | other results |
| --- | --- | --- | --- | --- | --- | --- | --- | --- | --- | --- | --- | --- | --- | --- | --- | --- | --- | --- | --- | --- | --- |
| CC(c1ccccc1)C1NC(=O)CNC(=O)C(CO)NC(=O)C(C(O)C2CNC(=N)N2C2OC(CO)C(O)C(O)C2O)NC(=O)C(C(O)C2CNC(=N)N2)NC(=O)C(Cc2ccc3oc(-c4ccc(C(=O)O)cc4)nc3c2)NC1=O (stereo not drawn) [Example 25, Cyclo[3-[2-(4-carboxyphenyl)-1,3-benzoxazol-5-yl]alanyl-3-(2-iminoimidazolidin-4-yl)seryl-3-(3-hexopyranosyl-2-iminoimidazolidin-4-yl)serylserylglycyl-β-methylphenylalanyl]] | >128 | >128 | >128 | >128 | >128 | >128 | >128 | 128 (≈ 115 µM) | 128 (≈ 115 µM) | >128 | >128 | >128 | >128 | >128 | >128 | >128 | >128 | >128 | >128 | >128 | MIC Enterococcus faecalis (GC 2691) (Enterococcus sp.): >128 µg/mL; MIC Enterococcus faecalis (GC 3059) (Enterococcus sp.): >128 µg/mL; MIC Enterococcus faecalis (GC 6189) (Enterococcus sp.): >128 µg/mL; MIC Staphylococcus aureus (GC 3051) (Staphylococcus sp.): >128 µg/mL; MIC Staphylococcus aureus (GC 3053) (Staphylococcus sp.): >128 µg/mL; MIC Coagulase Negative Staphylococcus (GC 4551) (Staphylococcus sp.): >128 µg/mL; MIC Coagulase Negative Staphylococcus (GC 6257) (Staphylococcus sp.; strain GC 6257): >128 µg/mL; MIC Streptococcus pneumoniae (ATCC 6301) (Streptococcus sp.): >128 µg/mL; MIC Streptococcus pneumoniae (GC 1894) (Streptococcus sp.): 128 µg/mL (≈ 115 µM); MIC Streptococcus pyogenes (GC 4563) (Streptococcus sp.): >128 µg/mL; MIC Streptococcus agalactiae (GC 4564) (Streptococcus sp.): >128 µg/mL; MIC Streptococcus pneumoniae (GC 4565) (Streptococcus sp.): >128 µg/mL; MIC Escherichia coli (ATCC 25922) (Escherichia coli): >128 µg/mL; MIC Escherichia coli (GC 4559) (Escherichia coli): >128 µg/mL; MIC Escherichia coli (GC 4560) (Escherichia coli): >128 µg/mL |
| CC(c1ccccc1)C1NC(=O)CNC(=O)C(CO)NC(=O)C(C(O)C2CNC(=N)N2C2OC(CO)C(O)C(O)C2O)NC(=O)C(C(O)C2CNC(=N)N2)NC(=O)C(Cc2cc(Br)c(O)c(Br)c2)NC1=O (stereo not drawn) [Example 3, Cyclo[glycyl-β-methylphenylalanyl-3,5-dibromotyrosyl-3-(2-iminoimidazolidin-4-yl)seryl-3-(3-hexopyranosyl-2-iminoimidazolidin-4-yl)serylseryl]] (cyclo(G[ξPhe(βξ-Me)][Tyr(3,5-Br2)][ξEnduracididine(βξ-OH,4'ξ)][X1]S); configuration not given here) | >128 | >128 | >128 | >128 | >128 | >128 | >128 | >128 | >128 | >128 | >128 | >128 | >128 | >128 | >128 | >128 | >128 | >128 | >128 | 128 (≈ 113 µM) | MIC Coagulase Negative Staphylococcus (GC 4551) (Staphylococcus sp.): >128 µg/mL; MIC Coagulase Negative Staphylococcus (ID-3941) (Staphylococcus sp.; strain ID-3941): 128 µg/mL (≈ 113 µM); MIC Streptococcus agalactiae (GC 4564) (Streptococcus sp.): >128 µg/mL; MIC Streptococcus pneumoniae (GC 4565) (Streptococcus sp.): >128 µg/mL; MIC Streptococcus pyogenes (ID-3187) (Streptococcus sp.; strain ID-3187): >128 µg/mL; MIC Escherichia coli (ATCC 25922) (Escherichia coli): >128 µg/mL; MIC Escherichia coli (GC 4559) (Escherichia coli): >128 µg/mL; MIC Escherichia coli (GC 4560) (Escherichia coli): 64 µg/mL (≈ 56.7 µM) |
| CC(c1ccccc1)C1NC(=O)CNC(=O)C(CO)NC(=O)C(C(O)C2CNC(=N)N2C2OC(CO)C(O)C(O)C2O)NC(=O)C(C(O)C2CNC(=N)N2)NC(=O)C(Cc2ccc3oc(SCC(=O)c4ccccc4)nc3c2)NC1=O (stereo not shown) [Example 48] | 64 (≈ 55.8 µM) | 64 (≈ 55.8 µM) | 16 (≈ 14 µM) | 64 (≈ 55.8 µM) | 16 (≈ 14 µM) | 64 (≈ 55.8 µM) | 64 (≈ 55.8 µM) | 4 (≈ 3.49 µM) | 8 (≈ 6.98 µM) | 32 (≈ 27.9 µM) | 16 (≈ 14 µM) | 16 (≈ 14 µM) | 16 (≈ 14 µM) | 16 (≈ 14 µM) | 16 (≈ 14 µM) | 16 (≈ 14 µM) | 8 (≈ 6.98 µM) | 4 (≈ 3.49 µM) | 8 (≈ 6.98 µM) | 4 (≈ 3.49 µM) | MIC Enterococcus faecalis (GC 2691) (Enterococcus sp.): 64 µg/mL (≈ 55.8 µM); MIC Enterococcus faecalis (GC 3059) (Enterococcus sp.): 64 µg/mL (≈ 55.8 µM); MIC Enterococcus faecalis (GC 6189) (Enterococcus sp.): 64 µg/mL (≈ 55.8 µM); MIC Staphylococcus aureus (GC 3051) (Staphylococcus sp.): 16 µg/mL (≈ 14 µM); MIC Staphylococcus aureus (GC 3053) (Staphylococcus sp.): 16 µg/mL (≈ 14 µM); MIC Coagulase Negative Staphylococcus (GC 4551) (Staphylococcus sp.): 16 µg/mL (≈ 14 µM); MIC Streptococcus pneumoniae (ATCC 6301) (Streptococcus sp.): 16 µg/mL (≈ 14 µM); MIC Streptococcus pneumoniae (GC 1894) (Streptococcus sp.): 8 µg/mL (≈ 6.98 µM); MIC Streptococcus pyogenes (GC 4563) (Streptococcus sp.): 8 µg/mL (≈ 6.98 µM); MIC Streptococcus agalactiae (GC 4564) (Streptococcus sp.): 16 µg/mL (≈ 14 µM); MIC Streptococcus pneumoniae (GC 4565) (Streptococcus sp.): 32 µg/mL (≈ 27.9 µM); MIC Escherichia coli (ATCC 25922) (Escherichia coli): 32 µg/mL (≈ 27.9 µM); MIC Escherichia coli (GC 4559) (Escherichia coli): 32 µg/mL (≈ 27.9 µM); MIC Escherichia coli (GC 4560) (Escherichia coli): 4 µg/mL (≈ 3.49 µM) |
